{"source": "patent US20260166065A1", "about": "(priority 2023, published 2026)", "target": "PA-IL (lectin A, Lec A) (Pseudomonas aeruginosa, UniProt Q05097)", "sequence (Q05097 whole entry)": "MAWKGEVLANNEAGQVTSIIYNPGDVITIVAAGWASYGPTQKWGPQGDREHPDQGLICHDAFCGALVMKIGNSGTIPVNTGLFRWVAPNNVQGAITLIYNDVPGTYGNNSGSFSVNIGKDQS", "assay": "Lectin histochemistry: D-galactose blocking of biotinylated PA-IL binding to human respiratory epithelia, in relation to storage time of the sugar solution", "details": "for PA-IL lectin binding at the cilia of human respiratory epithelia in presence of D-galactose: 5 μg/ml PA-IL", "experimental": "Tissue preparation and lectin histological staining has been described (Schreiber et al. (2014) Anticancer Res. 34 (12): 7045-53). Five μm thick sections of human airway epithelium were applied to Adhesion Micro Slides (Histo Bond®; Marienfeld GmbH, Lauda-Königshofen Germany). Slides were deparaffinized and rehydrated through a series of graded ethanol to distilled water. […] Deparaffinized sections were briefly incubated in lectin buffer (LB) consisting of tris-buffered saline (TBS contained Trizma Base, 50 mM Tris; Sigma, Steinheim, Germany), sodium chloride (150 mM; J. T. Baker, Deventer, the Netherlands) and hydrochloric acid (Merck, Darmstadt, Germany) in distilled water (adjusted to pH 7.6) with addition of 1% MgCl2 and 1% CaCl2) (Merck, Darmstadt Germany). Sections were then treated with 0.1% trypsin (Biochrom KG, Berlin, Germany) dissolved in LB and incubated for 10 min at 37° C. To stop the digestion of the sections with trypsin, the sections were washed in running tap water for 5 min. […] This step was followed by three washes (5 min each) in TBS. Afterwards the sections were incubated with alkaline phosphatase streptavidin complex (Vectastain® ABC-Kit; Vector Laboratories) in a humid chamber for 30 min. After final three rinsings (5 min each) in TBS, sections were transferred into the visualizing mixture containing naphthol-AS-biphosphate, hexatozised new fuchsin, dimethylformamide and tween 20 (all from Sigma-Aldrich Chemie, Darmstadt, Germany) applied in the dark for 20 min to visualize enzyme reactivity. To stop the enzyme reaction, the sections were washed in running tap water (7 min) and were then transferred into distilled water (2 min). Counterstaining was performed using Mayer's hemalum (Merck). The sections were dehydrated and subsequently covered using a resinous permanent mounting medium (Eukitt, Kindler GmbH, Freiburg, Germany). Slides were first evaluated using a ZEISS Axiophot 2 microscope (Carl Zeiss, Jena, Germany). Digital images were obtained with a ZEISS Axio Scan Z1 slide scanner equipped with a ZEISS EC Plan-Neofluar 20×/0.50 Pol M27 objective (Carl Zeiss, Jena, Germany) and a Hitachi HV-F20SCL camera with 1600×1200 pixels (Hitachi Kokusai Electric America Ltd., New York, USA). For image acquisition ZEISS ZEN 2.3 software was used (Carl Zeiss, Jena, Germany). Images were further processed with netScope Viewer software (Net-Base Software, Freiburg, Germany).\nFor the PA-IL blocking experiments, 10 μg/ml PA-IL solution dissolved in LB was incubated 1:1 with a freshly prepared D-galactose solution (Merck, Darmstadt) for 30 min resulting in a final 5 μg/ml PA-IL solution before applying the mixture to the sections. The final concentration of D-galactose in solution ranged from 0.3 mM to 0.0375 mM D-galactose.\nTo analyze the loss of D-galactose activity to block PA-IL tissue binding in relation to storage time in an aqueous solution, D-galactose was dissolved in water and then stored for different durations (for 0, 40, 80, 160, 320 minutes as well as 12 and 24 h). After storage D-galactose was mixed with the PA-IL solution and used to incubate human respiratory epithelial tissue samples as described previously.", "data": [{"compound": "O=C[C@H](O)[C@@H](O)[C@@H](O)[C@H](O)CO", "note": "[D-galactose]", "values": [{"measurement": "PA-IL lectin binding at the cilia of human respiratory epithelia in presence of D-galactose", "setting": "0.0375 mM D-galactose stored 80 minutes in water, FIG. 8", "value": "significantly reduced, but not completely abolished"}, {"measurement": "PA-IL blocking activity of aqueous D-galactose solution", "setting": "after 80 minutes storage time in aqueous solution", "value": "nearly abolished"}, {"measurement": "PA-IL lectin binding at the cilia of human respiratory epithelia in presence of D-galactose", "setting": "freshly dissolved 0.0375 mM D-galactose, time point 0, FIG. 7", "value": "abolished"}, {"measurement": "PA-IL blocking efficacy of aqueous D-galactose solution", "setting": "freshly prepared solution", "value": "significant blocking activity"}, {"measurement": "period of storage in aqueous solution over which PA-IL blocking efficacy is lost", "setting": "storage in aqueous solution", "value": "approximately 80 minutes"}]}]}
